# Experimental data from US11603570B2, “Methods for the detection and treatment of leukemias that are responsive to DOT1L inhibition” (MEMORIAL SLOAN KETTERING CANCER CENTER, priority 2013, dated 2023).
# pIC50: −log10 of the molar value. Entries after “also recorded” stand apart in the source; their conditions may differ.
# Key:
# [1] = tested on: MV4-11; experiment: Cell proliferation, MV4-11; type: cell-based; settings: Homo sapiens; MLL-translocated line MV4-11; FIG. 2
# [2] = tested on: Molm-13; experiment: Cell proliferation, Molm-13; type: cell-based; settings: Homo sapiens; MLL-translocated line Molm-13; FIG. 2
# [3] = tested on: H3K79me2; experiment: H3K79 methylation in NUP98-NSD1 transformed cells; type: cell-based, mouse; settings: 10 μM
# [4] = tested on: NUP98-NSD1 transformed cells; experiment: Annexin V apoptosis in NUP98-NSD1 transformed cells; type: cell-based, mouse; settings: 10 μM, 10 days; compared with MLL-AF9 transformed cells; FIG. 8B
# Experimental: (§1) The percentage of Annexin V positive cells is shown.
# (§2) Apoptosis was assessed by staining cells with Annexin V 10 days after treatment. The extent of apoptosis was compared to that found in MLL-AF9 transformed cells treated in a similar fashion.
# [5] = tested on: MLL-AF9 transformed cells; experiment: Annexin V apoptosis in MLL-AF9 transformed cells; type: cell-based, mouse; settings: 10 μM, 10 days; FIG. 8B
# Experimental: as §1, §2
# [6] = tested on: Npm1^cA/+Rosa^SB/+ AML cells; experiment: Leukemia initiating potential in vivo, mice injected with pre-treated Npm1^cA/+Rosa^SB/+ cells; parameters: species or system mouse
# Excerpt: FIGS. 13A-13C show the effects of DOT1L inhibition on leukemia initiating potential in vivo. […] FIG. 13B indicates differentiation in EPZ00477 treated cells (and not in cells exposed to only DMSO). […] Numbers of white blood cells and platelets are expressed as number of cells per microliter (μL) of blood. Hemoglobin levels are expressed in grams per deciliter (g/dl).
# Furthermore, peripheral blood smears stained with Wright-Giemsa stain indicate differentiation in EPZ00477 treated cells (and not in cells exposed to only DMSO) (FIG. 13B).
# [7] = tested on: Molm-13; settings: Daigle, 2011; cited from earlier work
# [8] = tested on: H3K79me2; settings: 0.048, 0.195, 0.781, 3.12, and 12.5 μm; FIG. 1A; cited from earlier work
# [9] = tested on: MLL xenograft; settings: in vivo administration; cited from earlier work
# [10] = tested on: Kasumi-1; experiment: Cell proliferation, Kasumi-1 (AML1-ETO)
# [11] = tested on: MUTZ-11; experiment: Proliferation of MLL-PTD cell line MUTZ-11; settings: 10 μM, 10-day period; FIG. 3A
# [12] = day 19 complete blood counts, FIG. 13C
smiles,measurement,setting,value
"CC(C)N(CCCNC(=O)Nc1ccc(C(C)(C)C)cc1)C[C@H]1O[C@@H](n2ccc3c(N)ncnc32)[C@H](O)[C@@H]1O [EPZ004777, 1-(3-((((2R,3S,4R,5R)-5-(4-Amino-7H-pyrrolo[2,3-d]pyrimidin-7-yl)-3,4-dihydroxytetrahydrofuran-2-yl)methyl)(isopropyl)amino)propyl)-3-(4-(tert-butyl)phenyl)urea]",pIC50,[1],6.77
same,pIC50,[2],6.14
same,HOX promoter associated H3K79 methylation,[3]; 7 day treatment,significantly reduced
same,global H3K79me2 level (Western blotting),"[3]; 10 days, NUP98-NSD1 cells, FIG. 8A",completely abrogated; also recorded: decrease
same,apoptosis (Annexin V staining),[4],more apoptosis; also recorded: induces apoptosis
same,apoptosis (Annexin V staining),[5],induces apoptosis
same,survival (Kaplan-Meier),"[6]; cells pre-treated 6 days with 10 μM, FIG. 13A",extended survival time; also recorded: prolonged survival
same,"peripheral blood smears, Wright-Giemsa stain","[6]; day 19, cells pre-treated 6 days with 10 μM, FIG. 13B",differentiation
same,levels of hemoglobin,[6]; [12],slight increase
same,number of white blood cells,[6]; [12],significant reduction
same,platelet counts,[6]; [12],slight increase
same,growth of the MLL-AF9 cell line Molm-13,[7],exquisitely sensitive
same,H3K79me2 histone methylation,[8],inhibited
same,survival,[9],prolonged survival; also recorded: extension of survival
same,proliferation (cell counts),"[10]; 10 μM, AML1-ETO (Kasumi) cells, FIG. 3B, 7D",not sensitive; also recorded: insensitive
same,pIC50,"[10]; Homo sapiens, Kasumi 1, read-out: IC50 for cell proliferation",4.48
same,proliferation (cell counts),[11],significantly inhibited
